Assay results published in ChEMBL document CHEMBL1201862, “PubChem BioAssay data set” (2004).
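All cell lines were grown in 96-well plates and treated with compound for 48 hours. The concentration for 50% growth inhibition is given as GI50.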 The source made the active and inactive calls. No stated cut-off is given here; in the data, active = GI50 up to about 1.1 µM and inactive = higher.

Experiments:
Experiment in all cases: growth of human tumour cells (NCI), 48 h
[1] = tested on: A498
[2] = tested on: HT-29
[3] = tested on: IGROV-1
[4] = tested on: M14
[5] = tested on: Malme-3M
[6] = tested on: NCI-H23
[7] = tested on: NCI-H522
[8] = tested on: OVCAR-3
[9] = tested on: OVCAR-4
[10] = tested on: OVCAR-8
[11] = tested on: SF-268
[12] = tested on: SF-295
[13] = tested on: SN12C
[14] = tested on: SNB-75
[15] = tested on: SW-620
[16] = tested on: TK-10
[17] = tested on: U-251
[18] = tested on: CCRF-CEM
[19] = tested on: K562
[20] = tested on: PC-3

| Compound | GI50 [1] | GI50 [2] | GI50 [3] | GI50 [4] | GI50 [5] | GI50 [6] | GI50 [7] | GI50 [8] | GI50 [9] | GI50 [10] | GI50 [11] | GI50 [12] | GI50 [13] | GI50 [14] | GI50 [15] | GI50 [16] | GI50 [17] | GI50 [18] | GI50 [19] | GI50 [20] |
| --- | --- | --- | --- | --- | --- | --- | --- | --- | --- | --- | --- | --- | --- | --- | --- | --- | --- | --- | --- | --- |
| C/C(=C/C(=O)N(C)c1ccccc1Cl)O[Si](C(C)C)(C(C)C)C(C)C | > 10 µM (inactive) | 17.6 µM (inactive) | 23.1 µM (inactive) | 27.5 µM (inactive) | 23.9 µM (inactive) | 24.7 µM (inactive) | 15.4 µM (inactive) | 18.2 µM (inactive) | 61.2 µM (inactive) | 20.7 µM (inactive) | 21.8 µM (inactive) | 21.8 µM (inactive) | 17 µM (inactive) | 29.4 µM (inactive) | 19.4 µM (inactive) | 33.5 µM (inactive) | 20 µM (inactive) | – | – | – |
| O=C(O)CCC(=O)N1c2ccccc2CC1c1c[nH]c2ccccc12 (stereo not drawn) | > 100 µM (inactive) | > 100 µM (inactive) | > 100 µM (inactive) | > 100 µM (inactive) | > 100 µM (inactive) | > 100 µM (inactive) | 76.6 µM (inactive) | > 100 µM (inactive) | > 100 µM (inactive) | > 100 µM (inactive) | > 100 µM (inactive) | > 100 µM (inactive) | > 100 µM (inactive) | > 100 µM (inactive) | > 100 µM (inactive) | > 100 µM (inactive) | > 100 µM (inactive) | > 100 µM (inactive) | > 100 µM (inactive) | – |
| CCN(CC)CCSc1nc2cccc([N+](=O)[O-])c2[nH]1 | – | > 100 µM (inactive) | > 100 µM (inactive) | > 100 µM (inactive) | – | > 100 µM (inactive) | > 100 µM (inactive) | > 100 µM (inactive) | > 100 µM (inactive) | > 100 µM (inactive) | – | – | > 100 µM (inactive) | > 100 µM (inactive) | > 100 µM (inactive) | > 100 µM (inactive) | – | > 100 µM (inactive) | > 100 µM (inactive) | – |
| C=C1CCCC(C)(C)[C@@H]1CC/C(C)=C/Cn1c2cccc(=O)c-2nc2ccccc21 | 3.52 µM (inactive) | 1.77 µM (inactive) | 1.71 µM (inactive) | – | – | 1.52 µM (inactive) | – | 3.18 µM (inactive) | 1.81 µM (inactive) | 1.55 µM (inactive) | 1.39 µM (inactive) | 1.45 µM (inactive) | 1.59 µM (inactive) | 1.41 µM (inactive) | 1.61 µM (inactive) | – | 1.53 µM (inactive) | 0.406 µM (active) | 1.07 µM (active) | – |
| Nc1ncnc2c1ncn2COC/C=C/I | > 100 µM (inactive) | > 100 µM (inactive) | > 100 µM (inactive) | > 100 µM (inactive) | > 100 µM (inactive) | > 100 µM (inactive) | > 100 µM (inactive) | > 100 µM (inactive) | > 100 µM (inactive) | > 100 µM (inactive) | > 100 µM (inactive) | > 100 µM (inactive) | > 100 µM (inactive) | 36.7 µM (inactive) | > 100 µM (inactive) | > 100 µM (inactive) | > 100 µM (inactive) | 85.3 µM (inactive) | > 100 µM (inactive) | – |
| COc1cc(CCc2ccc(OCCN(C)C)cc2)cc(OC)c1OC | 76 µM (inactive) | 34.2 µM (inactive) | > 100 µM (inactive) | 68.4 µM (inactive) | 93.3 µM (inactive) | – | 83.8 µM (inactive) | 64.1 µM (inactive) | > 100 µM (inactive) | > 100 µM (inactive) | > 100 µM (inactive) | > 100 µM (inactive) | > 100 µM (inactive) | 45.1 µM (inactive) | > 100 µM (inactive) | 78.9 µM (inactive) | > 100 µM (inactive) | > 100 µM (inactive) | 39.5 µM (inactive) | – |
| CC1=C(Oc2ccccc2)C(CCC(=O)O)c2c(O)cc(Cl)c(O)c21 (stereo not drawn) | > 100 µM (inactive) | – | > 100 µM (inactive) | > 100 µM (inactive) | – | > 100 µM (inactive) | > 100 µM (inactive) | > 100 µM (inactive) | > 100 µM (inactive) | > 100 µM (inactive) | > 100 µM (inactive) | > 100 µM (inactive) | > 100 µM (inactive) | – | > 100 µM (inactive) | > 100 µM (inactive) | > 100 µM (inactive) | > 100 µM (inactive) | > 100 µM (inactive) | – |
| O=C1C(Cl)N(c2c(Cl)cccc2Cl)C1c1c[nH]c2ccccc12 (stereo not drawn) | – | > 100 µM (inactive) | > 100 µM (inactive) | > 100 µM (inactive) | 36.3 µM (inactive) | > 100 µM (inactive) | > 100 µM (inactive) | > 100 µM (inactive) | > 100 µM (inactive) | > 100 µM (inactive) | > 100 µM (inactive) | > 100 µM (inactive) | > 100 µM (inactive) | > 100 µM (inactive) | > 100 µM (inactive) | > 100 µM (inactive) | > 100 µM (inactive) | > 100 µM (inactive) | > 100 µM (inactive) | – |
| O=C(Cc1ccccc1)NN1C(=O)C(Cl)C1c1ccccc1 (stereo not drawn) | – | > 100 µM (inactive) | 66.4 µM (inactive) | > 100 µM (inactive) | > 100 µM (inactive) | 61.7 µM (inactive) | 2.05 µM (inactive) | 37.2 µM (inactive) | 39.1 µM (inactive) | 79.3 µM (inactive) | > 100 µM (inactive) | > 100 µM (inactive) | 35.9 µM (inactive) | 55.7 µM (inactive) | > 100 µM (inactive) | > 100 µM (inactive) | > 100 µM (inactive) | 18.6 µM (inactive) | 37.9 µM (inactive) | – |
| CCCCCCCCCCCC1CCCC(C)N1 (stereo not drawn) | 51.5 µM (inactive) | 20.6 µM (inactive) | 61.2 µM (inactive) | – | 90.4 µM (inactive) | 61.9 µM (inactive) | 35.9 µM (inactive) | 72.9 µM (inactive) | 61.2 µM (inactive) | 80 µM (inactive) | 67.9 µM (inactive) | 77.8 µM (inactive) | 53.1 µM (inactive) | 65.8 µM (inactive) | 58.3 µM (inactive) | – | 59.3 µM (inactive) | 23.3 µM (inactive) | 19.1 µM (inactive) | – |
| Cn1c2c([N+](=O)[O-])[se]nc2c(=O)n1-c1ccc([N+](=O)[O-])cc1 | 11.4 µM (inactive) | 2.74 µM (inactive) | 1.29 µM (inactive) | 1.29 µM (inactive) | 1.75 µM (inactive) | 1.98 µM (inactive) | 1.7 µM (inactive) | 1.73 µM (inactive) | 0.447 µM (active) | 1.02 µM (active) | 2.21 µM (inactive) | 3.13 µM (inactive) | 1.71 µM (inactive) | 4.03 µM (inactive) | 0.357 µM (active) | 7.55 µM (inactive) | 2.51 µM (inactive) | 0.627 µM (active) | 0.0664 µM (active) | – |
| C[C@@]12CC[C@H]3[C@@H]4CCC(=O)N[C@@]4(C)CC[C@@H]3[C@@]1(C)CC[C@H](OC(=O)Cc1ccc(N(CCCl)CCCl)cc1)C2 | 18.7 µM (inactive) | 14.7 µM (inactive) | 16.2 µM (inactive) | – | 19.5 µM (inactive) | 15.1 µM (inactive) | 17.7 µM (inactive) | 17.9 µM (inactive) | 18.2 µM (inactive) | 16.7 µM (inactive) | 15.8 µM (inactive) | 17.5 µM (inactive) | 14.2 µM (inactive) | 18.3 µM (inactive) | 18.2 µM (inactive) | – | 15 µM (inactive) | 11.5 µM (inactive) | 19.5 µM (inactive) | – |
| CCCCCCCCCCCCCCCCNCCCN(C)CCCN | 18.2 µM (inactive) | 19.3 µM (inactive) | 20.3 µM (inactive) | 17.1 µM (inactive) | – | 18.9 µM (inactive) | 17.3 µM (inactive) | 19.5 µM (inactive) | 18.8 µM (inactive) | 20.7 µM (inactive) | 18.7 µM (inactive) | 17.9 µM (inactive) | 20 µM (inactive) | 18.2 µM (inactive) | 18.5 µM (inactive) | 15 µM (inactive) | 17.3 µM (inactive) | – | 20 µM (inactive) | – |
| Cc1cc(C)c(/C=C(\C(=C/c2c(C)cc(C)cc2C)[N+](=O)[O-])[N+](=O)[O-])c(C)c1 | – | > 100 µM (inactive) | > 100 µM (inactive) | > 100 µM (inactive) | – | > 100 µM (inactive) | – | > 100 µM (inactive) | > 100 µM (inactive) | – | – | > 100 µM (inactive) | > 100 µM (inactive) | > 100 µM (inactive) | > 100 µM (inactive) | > 100 µM (inactive) | > 100 µM (inactive) | 41.6 µM (inactive) | > 100 µM (inactive) | > 100 µM (inactive) |
| O=c1[nH]nc(NNc2ccccc2)c2nnn(C3CCCCC3)c12 | – | > 100 µM (inactive) | – | > 100 µM (inactive) | > 100 µM (inactive) | > 100 µM (inactive) | – | > 100 µM (inactive) | > 100 µM (inactive) | 88.1 µM (inactive) | – | > 100 µM (inactive) | > 100 µM (inactive) | – | – | > 100 µM (inactive) | > 100 µM (inactive) | > 100 µM (inactive) | > 100 µM (inactive) | > 100 µM (inactive) |
| CCCc1onc(CCC(=O)N(Cc2ccccc2)Cc2ccccc2)c1CC | > 100 µM (inactive) | > 100 µM (inactive) | > 100 µM (inactive) | > 100 µM (inactive) | > 100 µM (inactive) | > 100 µM (inactive) | > 100 µM (inactive) | > 100 µM (inactive) | > 100 µM (inactive) | – | > 100 µM (inactive) | > 100 µM (inactive) | > 100 µM (inactive) | – | – | – | > 100 µM (inactive) | > 100 µM (inactive) | > 100 µM (inactive) | – |
